Results: patent US6943147B2, “Cancer treatment using proANP peptides” (University of South Florida, priority 2003, dated 2005)

Legend:
[1] = test system: pancreatic adenocarcinoma cells; experiment: DNA synthesis by bromodeoxyuridine (BrdU) incorporation into adenocarcinoma cells; format: cell-based, human; conditions: 24 hours
From the text: To investigate whether these peptide hormones were inhibiting DNA synthesis and cell proliferation bromodeoxyuridine (BrdU) incorporation into the adenocarcinoma cells was utilized. BrdU was from BD Bioscience, San Jose, Calif. DNA synthesis and doubling of the genome take place during the synthetic or S phase. BrdU is a thymidine analog incorporated into nuclear DNA during the S phase of the cell cycle. Immunohistochemical methods use BrdU also as a marker of cell proliferation in cancer biology studies. After 24 hours in culture with 1 μM of LANP, vessel dilator, kaliuretic peptide, or ANP, respectively, or with no peptide hormone (i.e., control), BrdU in a final concentration of 10 μM in the cell culture medium was added for 45 minutes—which is time in which the cells are in the logarithmic phase of cell proliferation. For immunohistochemistry, a BrdU in situ detection kit from Becton Dickinson Immunocytochemistry Systems, San Jose, Calif., was utilized.
After the 45 minutes with BrdU, the adenocarcinoma cells were washed three times in phosphate buffered saline (PBS), five minutes each. This was followed by placing the cells in a −80° C. freezer for five minutes and then 100% methanol was added at 5° C. in order for the cells to become permeable enabling the anti-BrdU antibody to reach the nucleus of the cell. The cells were then washed again in PBS before 100 μl of biotinylated anti-BrdU antibody was added. The coverslips were then incubated in a humidified chamber for one hour. After this incubation, the slides were rinsed in PBS, two minutes each. Then streptavidin-horseradish peroxidase (HRP) was added to each coverslip. The cells were then incubated for 30 minutes. Streptavidin-HRP binds to biotinylated anti-BrdU and HRP is used with addition of diaminobenzidine (DAB) substrate system to visualize BrdU incorporation into the adénocarcinoma cells. After the 30 minute incubation with streptavidin-HRP, the coverslips were rinsed in PBS, two minutes each time, before adding the DAB substrate solution, which contains DAB chromagen and DAB buffer, for five minutes. The coverslips were then rinsed in water, two minutes each time before counterstaining the slides with hematoxylin for 60 seconds followed by a thorough rinsing in water for five minutes. The incorporation of the BrdU stain into the nucleus was then counted using a Nikon Inverted Diaphot-TMD Microscope (Tokyo, Japan). The number of stained nuclei was compared in the four peptide hormone groups to the positive control group. The negative control for these studies was provided by Becton Dickinson Immunocytochemistry Systems.
BrdU has an advantage over ^3H-thymidine incorporation in that it takes less time and provides high resolution.
Cyclic GMP and prostaglandin E2 are the two known mediators of all of the previously described biologic effects of these four peptide hormones. All four of these peptide hormones-induced vasodilation of vasculature is mediated by increased cyclic GMP concentrations via enhancing guanylate cyclase activity. […] ANPs effects in the kidney are thought to be mediated by cyclic GMP. Each of these peptide hormones increase cyclic GMP while simultaneously dilating vasculature. 8 bromo-cyclic GMP reproduces these vasodilatory effects. For the present investigation of the mechanism of these peptide hormones' ability to inhibit DNA synthesis in cancer cells, 8-bromoguanosine 3′,5′-cyclic monophosphate (i.e., 8-bromo cyclic GMP, Sigma-Aldrich Co., St. Louis, Mo.) was utilized. 8-bromo cyclic GMP is a cell-permeable analog of cyclic GMP. 8-bromo cyclic GMP effects on DNA synthesis were investigated in dose-response curves with cyclic GMP concentrations ranging from 100 pM to 5 mM.
Prostaglandin E2, i.e., (5Z, 11α, 13E, 15S)-11, 15-dihydro-9-oxo-prosta-5, 13-dien-I-oic acid was purchased from Sigma-Aldrich, St. Louis, Mo. […]

[2] = test system: pancreatic adenocarcinoma cell line, ATCC number CRL-2119; experiment: Number of pancreatic adenocarcinoma cells in culture, counted by microscope; format: cell-based, human; conditions: for number of cancer cells compared to controls: 48 hours
From the text: The pancreatic adenocarcinoma cell line, ATCC number CRL-2119, was derived in 1985 from a nude mouse xenograft of a primary tumor removed from the head of the pancreas. It is a moderate to well-differentiated pancreatic adenocarcinoma of ductal origin. These pancreatic adenocarcinoma cells are stimulated to proliferate in culture by insulin, insulin-like growth factor I (IGF-I), epidermal growth factor (EGF), and transforming growth factor alpha (TGF alpha). These adenocarcinoma cells contain significant concentrations of tumor-associated antigens CEA, CA 125, and CA 19-9. In culture, these adenocarcinoma cells form monolayers of morphologically heterogeneous polar epithelial cells. These cells are tumorgenic in that they form tumors in athymic nude mice at the site of inoculation that are histologically similar to the tumor of origin.
Propagation of these cells was in Dulbecco's modified Eagle's plus Ham's F12-A 1:1 mixture of Dulbecco's modified Eagle's medium and Ham's F12 medium containing 1.2 g/L of sodium bicarbonate (Sigma Chemical Co., St. Louis, Mo.) supplemented with 15 mM HEPES and fetal bovine serum, 10%, at a temperature of 37° C. as recommended by the ATCC.
These pancreatic adenocarcinoma cells were subcultured (passaged) by removing spent (i.e., old) medium by aspiration, and then adding calcium and magnesium free Hank's Balanced Salt Solution with 0.25% trypsin and 0.03% ethylenediaminetetracetic acid (EDTA). The culture was allowed to sit at room temperature for 2 to 5 minutes. Fresh medium was added to the adenocarcinoma cells which were dispensed into new flasks, with subculture every 6 to 8 days. The growth medium was changed every three days.
After these adenocarcinoma cells were subcultured for 24 hours, they were then seeded to coverslips and transferred to 24 microwell plates (NUCOLON, Roskilde Denmark), with 1 ml Dulbeco Modified Eagle's (DME)/[…] nutrient culture media (Sigma Chemical Co.) with 10% fetal bovine serum (Atlanta Biologicals, Norcross, Ga.). After 24 hours, wells were washed twice with Dulbecco's Modified Eagle's/Ham's F12 with 0.1% bovine serum albumin (Sigma-Aldrich, St. Louis, Mo.) and allowed to incubate in this serum free medium for an additional 24 hour period of serum deprivation. Serum-free media was utilized to remove all variables (EGF, etc.) present in serum in order that interpretation of any data obtained would be straightforward. After 24 hours of serum deprivation, media volume was reduced to 250 μL per well with or without the respective peptide hormones at their 1 μM concentrations (1% of this volume). The adenocarcinoma cells were then incubated for various periods of time (24, 48, 72, and 96 hours).At the end of the above time periods, hematoxylin was added for 5 minutes to make the cells more visible for counting, and then they were washed for 5 minutes. The coverslips were then placed face down on microscope slides with the addition of 6 μl of histologic grade phosphate buffered saline (PBS)/I-glycine that had been filtered immediately before use with a 0.22 μm polyethersulfone, nonpyrogenic, sterile, low protein binding membrane (Corning 43117, Corning Inc., Corning, N.Y.). The number of adenocarcinoma cells were then counted with a cell counter evaluating ten fields of the microscope slide at 40× along the X-axis with an Olympus BH-2 microscope (Atlanta, Ga.). This evaluation was repeated on six separate occasions with the number of adenocarcinoma cells reflecting 60 observations for each group, i.e., 60 observations for controls and 60 observations for each of the four groups with respective peptide hormones. The only variable in this investigation was whether one of the four peptide hormones was added to the pancreatic adenocarcinoma cells. Otherwise all the adenocarcinoma cells were treated the same, i.e., with same culture medium, time of incubation, and processing of cells for the various investigations. […]

[3] = test system: pancreatic adenocarcinoma cells; conditions: in one study; cited from earlier work
[4] = test system: hepatoblastoma cells; conditions: cited from earlier work
[5] = test system: rat mesangial cells; conditions: cited from earlier work

Molecule: CCCCC[C@H](O)/C=C/[C@H]1[C@H](O)CC(=O)[C@@H]1C/C=C\CCCC(=O)O [prostaglandin E2, (5Z, 11α, 13E, 15S)-11, 15-dihydro-9-oxo-prosta-5, 13-dien-I-oic acid]
- decrease in DNA synthesis ([1]; 10 pg/ml): 4%
- decrease in DNA synthesis ([1]; 1 ng/ml): 5%
- decrease in DNA synthesis ([1]; 10 ng/ml): 5%
- decrease in DNA synthesis ([1]; 0.1 μg/ml): 9%
- decrease in DNA synthesis ([1]; 1 μg/ml): 11%
- decrease in DNA synthesis ([1]; 10 μg/ml): 14%
- decrease in DNA synthesis ([1]; 1 mg/ml): 23%

Molecule: LANP: first 30 amino acids from the N-terminal end of the ANP prohormone (NPMYNAVSNADLMDFKNLLDHLEEKMPLED; long-acting natriuretic peptide; UniProt P01160 26-55, looked up, fragment)
- decrease in the number of adenocarcinoma cells ([2]; 1 μM, 24 hours, vs untreated cells): 47%
- number of adenocarcinoma cells ([2]; 1 μM, 24 hours, untreated 183.4+/−8): 97.7+/−3 cells per high powered field
- number of cancer cells compared to controls ([2]; 1 μM): 43%
- decrease in the number of adenocarcinoma cells ([2]; 1 μM, 72 hours, vs untreated cells): 47%
- decrease in the number of adenocarcinoma cells ([2]; 1 μM, 96 hours, vs untreated cells): 48%
- decrease in the number of adenocarcinoma cells ([2]; time not stated): ~50%
- inhibition of DNA synthesis ([1]; 1 μM): 84%

Molecule: Nc1nc2c(nc(Br)n2[C@@H]2O[C@@H]3COP(=O)(O)O[C@H]3[C@H]2O)c(=O)[nH]1 [8-bromo cyclic GMP, 8-bromoguanosine 3′,5′-cyclic monophosphate]
- decrease in DNA synthesis ([1]; 1 nM): 25%
- decrease in DNA synthesis ([1]; 1 μM): 34%
- decrease in DNA synthesis ([1]; 100 μM): 39%
- decrease in DNA synthesis ([1]; 1 mM): 42%
- decrease in DNA synthesis ([1]; 3 mM): 46%
- decrease in DNA synthesis ([1]; 5 mM): 51%

Molecule: O=c1[nH]cc(F)c(=O)[nH]1 [5-FU, 5-fluorouracil]
- decrease in pancreatic adenocarcinoma cells in culture [3]: 16%

Molecule: CC[C@H](C)[C@@H]1NC(=O)[C@H](CCCNC(=N)N)NC(=O)[C@H](CC(=O)O)NC(=O)[C@H](CCSC)NC(=O)[C@H](CCCNC(=N)N)NC(=O)CNC(=O)CNC(=O)[C@H](Cc2ccccc2)NC(=O)[C@@H](NC(=O)[C@H](CO)NC(=O)[C@H](CO)NC(=O)[C@H](CCCNC(=N)N)NC(=O)[C@H](CCCNC(=N)N)NC(=O)[C@H](CC(C)C)NC(=O)[C@@H](N)CO)CSSC[C@@H](C(=O)N[C@@H](CC(N)=O)C(=O)N[C@@H](CO)C(=O)N[C@@H](Cc2ccccc2)C(=O)N[C@@H](CCCNC(=N)N)C(=O)N[C@@H](Cc2ccc(O)cc2)C(=O)O)NC(=O)CNC(=O)[C@H](CC(C)C)NC(=O)CNC(=O)[C@H](CO)NC(=O)[C@H](CCC(N)=O)NC(=O)[C@H](C)NC(=O)CNC1=O [ANP]
- number of cancer cells compared to controls ([2]; 1 μM): 33%
- inhibition of DNA synthesis [4]: 22%
- inhibition of DNA synthesis ([1]; 1 μM): 83%
- inhibition of DNA synthesis [5]: 47% to 60
